Data: patent US4241069A, “3-Methylene flavanones and 3-methylene chromanones” (Miles Laboratories, Inc., priority 1979, dated 1980)
≈ marks a conversion by molar mass, not a printed value.

What was measured:
[1] = test system: Clostridium acetobutylicum ATCC 824; experiment: MIC, agar incorporation method, anaerobic; format: cell-based; conditions: ATCC824, 48 h, 48 hours at 35° C., GasPak Anaerobic Jar, read-out: Minimal Inhibitory Concentration
Protocol: (§1) The compounds of the present invention were tested for their ability to inhibit the growth of microorganisms by in vitro tests. Generally the in vitro tests involve growing representative microorganisms under conditions favorable to such growth and measuring the effectiveness of one or more compounds in inhibiting or destroying the growth of the microorganisms. The microorganisms used include representative bacteria, fungi and yeasts.
(§2) A representative selection of the test microorganisms were cultured in a nutrient broth, such as, for example, Eugon, commercially available from Difco Laboratories, Detroit, Michigan. Bacteria and Candida species were cultured for 24 hours at 32°-37° C. and fungi were cultured for approximately one week at 32° C. Inocula were prepared by suspending the growth or spores from a slant culture in sufficient sterile normal (0.9 percent) saline or Eugon broth, to yield cell or spore concentrations of 1,000,000 cells per milliliter. Anaerobic bacteria were cultured for 48-72 hours at 32°-37° C. in a thioglycollate containing medium, for example, Fluid Thioglycollate medium or NIH thioglycollate broth, commercially available from Difco Laboratories.
(§3) The compounds of the present invention were tested for activity against bacteria, yeasts and fungi by the agar incorporation method described below. MA 1347, 3-(dimethylaminomethyl)flavanone (disclosed in U.S. Pat. No. 3,753,985) was used as a comparative standard along with controls for each solvent system used.
(§4) A series of agar plates containing two-fold dilutions of each compound to be tested, ranging in concentration from 100 to 3.1 mcg/ml of agar medium was prepared. Aliquots of each concentration (100, 50, 25, 12.5, 6.2, and 3.1) prepared in N,N-dimethylformamide or 50 percent aqueous DMF were added to liquid Eugon agar at 48° C. (one part test solution to 100 parts agar). In some cases, tests with further dilutions to 0.125 mcg/ml were conducted. The agar medium, containing the 3-methylene flavanone or chromanone compound to be tested, was then dispensed into petri dishes and allowed to solidify. The solidified plates were kept overnight at room temperatures to dry the surface of the agar.
(§5) The agar plates were then inoculated with a drop of the standardized cell or spore suspension. Inoculated plates were incubated at 32° C. The inhibition end-point or minimum inhibitory concentration (MIC) shown in Table D represent the lowest concentration of test compound which inhibited the growth of the microorganism. Visual determination of growth inhibition was used. Bacteria and yeast end-points were determined after 24 hours incubation; molds, dermatophytes and anaerobes after 48-72 hours incubation. MIC values shown as ranges represent the extremes found in repeat assays. Virtually all such values were written plus or minus one dilution, the accepted variation of a two-fold dilution assay.
(§6) *Anaerobic: 48 hours incubation at 35° C. GasPak Anaerobic Jar

[2] = test system: Propionobacterium acnes ATCC 6919; experiment: MIC, agar incorporation method, anaerobic; format: cell-based; conditions: 48 hours at 35° C., GasPak Anaerobic Jar, read-out: Minimal Inhibitory Concentration
Protocol: as §1, §2, §3, §4, §5, §6

S. aureus NRRL B2747 [3] = experiment: MIC, agar incorporation method; format: cell-based, Staphylococcus aureus; conditions: 24 hours; for MIC: Staphylococcus aureus, NRRLB2747, 32° C., read-out: Minimal Inhibitory Concentration
Protocol: as §1, §2, §3, §4, §5

[4] = test system: Trichophyton mentagrophytes ATCC 4807; experiment: MIC, agar incorporation method; format: cell-based; conditions: ATCC4807, 32° C., 48-72 hours, read-out: Minimal Inhibitory Concentration
Protocol: as §1, §2, §3, §4, §5

C. tropicalis NRRL Y1410 = experiment: MIC, agar incorporation method; format: cell-based; conditions: Candida tropicalis, NRRLY1410; 32° C., 24 hours; read-out: Minimal Inhibitory Concentration
Protocol: as §1, §2, §3, §4, §5

C. albicans NRRL Y-477 = experiment: MIC, agar incorporation method; format: cell-based; conditions: Candida albicans, NRRLY477, 32° C., 24 hours, read-out: Minimal Inhibitory Concentration
Protocol: as §1, §2, §3, §4, §5

T. rubrum ATCC 10218 = experiment: MIC, agar incorporation method; format: cell-based; conditions: Trichophyton rubrum, ATCC10218; 32° C., 48-72 hours; read-out: Minimal Inhibitory Concentration
Protocol: as §1, §2, §3, §4, §5

[5] = test system: Streptococcus faecalis ATCC 10541; experiment: MIC, agar incorporation method; format: cell-based; conditions: Enterococcus faecalis, ATCC10541; 32° C., 24 hours; read-out: Minimal Inhibitory Concentration
Protocol: as §1, §2, §3, §4, §5

A. fumigatus NRRL 165 = experiment: MIC, agar incorporation method; format: cell-based; conditions: Aspergillus fumigatus, NRRL165, 32° C., 48-72 hours, read-out: Minimal Inhibitory Concentration
Protocol: as §1, §2, §3, §4, §5

[6] = test system: Pseudomonas aeruginosa ATCC 14502; experiment: MIC, agar incorporation method; format: cell-based; conditions: ATCC14502, 32° C., 24 hours, read-out: Minimal Inhibitory Concentration
Protocol: as §1, §2, §3, §4, §5

A. fumigatus NRRL 163 = experiment: MIC, agar incorporation method; format: cell-based; conditions: 32° C., 48-72 hours; for MIC: Aspergillus fumigatus, NRRL163, NRRL 163, read-out: Minimal Inhibitory Concentration
Protocol: as §1, §2, §3, §4, §5

[7] = test system: Proteus vulgaris NRRL B123; experiment: MIC, agar incorporation method; format: cell-based; conditions: NRRLB123, 32° C., 24 hours, read-out: Minimal Inhibitory Concentration
Protocol: as §1, §2, §3, §4, §5

T. mentagrophytes CDC = experiment: MIC, agar incorporation method; format: cell-based; conditions: Trichophyton mentagrophytes, 32° C., 48-72 hours, read-out: Minimal Inhibitory Concentration
Protocol: as §1, §2, §3, §4, §5

[8] = test system: Escherichia coli ATCC 8739; experiment: MIC, agar incorporation method; format: cell-based; conditions: ATCC8739, 32° C., 24 hours, read-out: Minimal Inhibitory Concentration
Protocol: as §1, §2, §3, §4, §5

[9] = test system: Aspergillus niger ATCC 16404; experiment: MIC, agar incorporation method; format: cell-based; conditions: ATCC16404, 32° C., 48-72 hours, read-out: Minimal Inhibitory Concentration
Protocol: as §1, §2, §3, §4, §5

[10] = test system: Sarcina subflava ATCC 7468; experiment: MIC, agar incorporation method; format: cell-based; conditions: ATCC7468, 32° C., 24 hours, read-out: Minimal Inhibitory Concentration
Protocol: as §1, §2, §3, §4, §5

C. krusei VM 29B = experiment: MIC, agar incorporation method; format: cell-based; conditions: Pichia kudriavzevii, VM29B; 32° C., 24 hours; read-out: Minimal Inhibitory Concentration
Protocol: as §1, §2, §3, §4, §5

[11] = test system: Staphylococcus aureus ATCC 6538; experiment: MIC, agar incorporation method; format: cell-based; conditions: S. aureus ATCC 6538, 32° C., 24 hours; for MIC: Staphylococcus aureus, ATCC6538, read-out: Minimal Inhibitory Concentration
Protocol: as §1, §2, §3, §4, §5

T. mentagrophytes TM-2 = experiment: MIC, agar incorporation method; format: cell-based; conditions: Trichophyton mentagrophytes, TM2, 32° C., 48-72 hours, read-out: Minimal Inhibitory Concentration
Protocol: as §1, §2, §3, §4, §5

[12] = test system: Microsporum gypseum ATCC 14683; experiment: MIC, agar incorporation method; format: cell-based; conditions: 48-72 hours; for MIC: Nannizzia gypsea, ATCC14683, 32° C., read-out: Minimal Inhibitory Concentration
Protocol: as §1, §2, §3, §4, §5

C. guillermondii VM 42 = experiment: MIC, agar incorporation method; format: cell-based; conditions: 32° C., 24 hours; read-out: Minimal Inhibitory Concentration
Protocol: as §1, §2, §3, §4, §5

[13] = test system: Candida albicans ATCC 10231; experiment: MIC, agar incorporation method; format: cell-based; conditions: ATCC10231, C. albicans ATCC 10231, 32° C., 24 hours, read-out: Minimal Inhibitory Concentration
Protocol: as §1, §2, §3, §4, §5

S. aureus NRRL B2747 [14] = experiment: MIC, agar incorporation method, anaerobic; format: cell-based; conditions: Staphylococcus aureus, NRRLB2747, 48 hours at 35° C., GasPak Anaerobic Jar, read-out: Minimal Inhibitory Concentration
Protocol: as §1, §2, §3, §4, §5, §6

[15] = test system: Bacteriodides fragilis ATCC 8482; experiment: MIC, agar incorporation method, anaerobic; format: cell-based; conditions: 48 hours at 35° C., GasPak Anaerobic Jar, read-out: Minimal Inhibitory Concentration
Protocol: as §1, §2, §3, §4, §5, §6

[16] = test system: Clostridium sporogenes ATCC 11437; experiment: MIC, agar incorporation method, anaerobic; format: cell-based; conditions: ATCC11437, 48 hours at 35° C., GasPak Anaerobic Jar, read-out: Minimal Inhibitory Concentration
Protocol: as §1, §2, §3, §4, §5, §6

T. tonsurans ATCC 10217 = experiment: MIC, agar incorporation method; format: cell-based; conditions: Trichophyton tonsurans, ATCC10217; 32° C., 48-72 hours; read-out: Minimal Inhibitory Concentration
Protocol: as §1, §2, §3, §4, §5

Structure (SMILES)	MIC [1] [µg/mL]	MIC [2] [µg/mL]	MIC (S. aureus NRRL B2747 [3]) [µg/mL]	MIC [4] [µg/mL]	MIC (C. tropicalis NRRL Y1410) [µg/mL]	MIC (C. albicans NRRL Y-477) [µg/mL]	MIC (T. rubrum ATCC 10218) [µg/mL]	MIC [5] [µg/mL]	MIC [6] [µg/mL]	MIC (A. fumigatus NRRL 163) [µg/mL]	MIC [7] [µg/mL]	MIC (T. mentagrophytes CDC) [µg/mL]	MIC [8] [µg/mL]	MIC [9] [µg/mL]	MIC [10] [µg/mL]	MIC (C. krusei VM 29B) [µg/mL]	MIC [11] [µg/mL]	MIC (T. mentagrophytes TM-2) [µg/mL]	MIC (C. guillermondii VM 42) [µg/mL]	MIC [13] [µg/mL]	further results
C=C1C(=O)c2ccccc2OC1c1ccc(C)cc1 (stereo not shown) [Ex. 13, 4'-methyl-3-methylene flavanone]	≤ 100	≤ 100	6.2 (≈ 24.8 µM)	6.2 (≈ 24.8 µM)	50 (≈ 200 µM)	25 (≈ 99.9 µM)	≤ 3.1	50 (≈ 200 µM)	> 100	12.5 (≈ 49.9 µM)	> 100	6.2 (≈ 24.8 µM)	> 100	50 (≈ 200 µM)	12.5 (≈ 49.9 µM)	25 (≈ 99.9 µM)	6.2 (≈ 24.8 µM)	6.2 (≈ 24.8 µM)	50 (≈ 200 µM)	25 (≈ 99.9 µM)	MIC (A. fumigatus NRRL 165): 50 µg/mL (≈ 200 µM); MIC [12]: 6.2 µg/mL (≈ 24.8 µM)
C=C1C(=O)c2ccccc2OC1(c1ccccc1)c1ccccc1 [Ex. 20, 3-methylene-2-phenyl flavanone]	1 (≈ 3.2 µM)	0.78 to 3.1 (≈ 2.5 to 9.92 µM)	0.25 to 0.5 (≈ 0.8 to 1.6 µM)	> 100	> 100	> 100	> 100	0.78 to 1 (≈ 2.5 to 3.2 µM)	> 100	> 100	> 100	> 100	> 100	> 100	1 (≈ 3.2 µM)	> 100	0.5 (≈ 1.6 µM)	> 100	> 100	> 100	MIC (S. aureus NRRL B2747 [14]): 0.25 to 1 µg/mL (≈ 0.8 to 3.2 µM); MIC [15]: 0.125 µg/mL (≈ 0.4 µM); MIC [16]: 0.5 µg/mL (≈ 1.6 µM); MIC (A. fumigatus NRRL 165): > 100 µg/mL; MIC (T. tonsurans ATCC 10217): > 100 µg/mL
CN(C)CC1C(=O)c2ccccc2OC1c1ccccc1 (stereo not shown) [MA 1347, 3-(dimethylaminomethyl)flavanone, reference compound]	≤ 100	12.5 (≈ 44.4 µM)	6.2 to 12.5 (≈ 22 to 44.4 µM)	6.2 to 12.5 (≈ 22 to 44.4 µM)	50 to 100 (≈ 178 to 355 µM)	25 (≈ 88.9 µM)	3.1 to 12.5 (≈ 11 to 44.4 µM)	50 (≈ 178 µM)	> 100	6.2 to 25 (≈ 22 to 88.9 µM)	> 100	6.2 to 12.5 (≈ 22 to 44.4 µM)	> 100	50 (≈ 178 µM)	12.5 (≈ 44.4 µM)	12.5 to 25 (≈ 44.4 to 88.9 µM)	6.2 to 12.5 (≈ 22 to 44.4 µM)	6.2 to 12.5 (≈ 22 to 44.4 µM)	50 to 100 (≈ 178 to 355 µM)	25 to 50 (≈ 88.9 to 178 µM)	MIC (S. aureus NRRL B2747 [14]): 25 µg/mL (≈ 88.9 µM); MIC [15]: 3.1 µg/mL (≈ 11 µM); MIC [16]: 6.2 µg/mL (≈ 22 µM); Minimal Inhibitory Concentration (S. aureus NRRL B2747 [3]; 32° C.): 6.2 to 12.5 µg/mL; Minimal Inhibitory Concentration (A. fumigatus NRRL 163; NRRL 163): 5.2 to 25 µg/mL; Minimal Inhibitory Concentration [11]: 6.2 to 12.5 µg/mL; Minimal Inhibitory Concentration ([12]; 32° C.): 6.12 to 12.5 µg/mL; MIC [12]: 6.2 to 12.5 µg/mL (≈ 22 to 44.4 µM); MIC (T. tonsurans ATCC 10217): 6.2 µg/mL (≈ 22 µM)
